This is an account of results in patent US20090298824A1, “Organic compounds” (priority 2004, published 2009).

SMILES strings stand for the structures.

The assay deals with neutrophils. The assay can be described thus: Neutrophil chemotaxis assay. It is filed as cell-based. The settings on record: 1.5 h; inhibition of neutrophil chemotaxis; chemoattractants 0.1-5 nM; 90 minutes migration at 37° C.; read-out: IC50 values in the above assay. The procedure:
The in vitro inhibitory properties of these compounds are determined in the neutrophil chemotaxis assay. Assays were performed in a 96-well plate format according to previously published method (Frevert C W, et al., J Immunolog. Methods, 1998, 213, 41). 96-well chemotaxis chambers 5 μm were obtained from Neuro Probe, all cell buffers were obtained from Invitrogen Paisley, UK, dextran-T500 and Ficoll-Paque Plus™ density gradient centrifugation media were purchased from Pharmacia Biotech Buckinghamshire, UK. Calcein-AM dye was obtained from Molecular Probes. Neutrophils were isolated as previously described (Haslett, C., et al. Am J Path., 1985, 119:101). Citrated whole blood was mixed with 4% (w/v) dextran-T500 and allowed to stand on ice for 30 minutes to remove erythrocytes. Granulocytes (PMN) were separated from peripheral blood mononuclear cells by layering 15 ml of cell suspension onto 15 ml Ficoll-Paque PLUS density gradient and centrifuged at 250×g for 25 minutes. […] The labelled cells were washed with RPMI without phenol red+0.1% bovine serum albumin, prior to use the cells were counted and adjusted to a final concentration of 5×10^6 cells/ml. […] At the end of the incubation period, migrated cells were quantified using a multi-well fluorescent plate reader (Fluoroskan II™, Labsystems) at 485 nm excitation and 538 nm emission. […]

As a reminder, the IC50 is the concentration that gives 50% inhibition. For the compound `N#Cc1cc(O)c2[nH]c(Nc3cccc(Cl)c3Cl)nc2c1` [Example 2, 2-(2,3-Dichloro-phenylamino)-7-hydroxy-1H-benzoimidazole-5-carbonitrile], the IC50 was found to be 322 nM.
